The compounds below were run on Hepatitis C replicon (assay: HCV replicon assay (NPT level by captured ELISA in replicon-containing cells)). Conditions: Hepatitis C virus, 72 h; Huh-7 HCV replicon-containing cells, three days incubation.
Assay type: cell-based
Procedure: The compounds claimed herein were tested for the ability to inhibit viral replication of the Hepatitis C replicon in cultured cells in which the HCV replicon construct has been incorporated. The HCV replicon system was described by Bartenschlager, et. al (Science, 285, pp. 110-113 (1999)). The replicon system is predictive of in vivo anti-HCV activity; compounds that are active in humans uniformly evidence activity in the replicon assay.
HCV replicon-containing cells are treated with different concentrations of interferon alpha, a known inhibitor of HCV replication, as a positive control and with different concentrations of the test compound. The replicon assay system includes Neomycin Phosphotransferase (NPT) as a component of the replicon itself in order to detect the transcription of replicon gene products in the host cell. Cells in which the HCV is actively replicating have high levels of NPT; the level of NPT is proportional to HCV replication. […] The NPT level of each sample is measured using a captured ELISA.
A protocol for testing compounds for the ability to inhibit viral replication of the Hepatitis C replicon cultured cells in which the replicon construct has been incorporated, follows.
9A. HCV Replicon and Replicon Expression
The HCV genome consists of a single ORF that encodes a 3000 amino acid polyprotein. The ORF is flanked on the 5′ side by an untranslated region that serves as an internal ribosome entry site (IRES) and at the 3′ side by a highly conserved sequence necessary for viral replication (3′-NTR). The structural proteins, necessary for viral infection, are located near the 5′ end of the ORF. The non-structural proteins, designated NS2 to NS5B comprise the remainder of the ORF.
The HCV replicon contains, 5′-3′, the HCV-IRES, the neomycin phosphotransferase (neo) gene, the IRES of encephalomyocarditis virus, which directs translation of HCV sequences NS3 to NS5B, and the 3′-NTR. The sequence of the HCV replicon has been deposited in GenBank (Accession no. AJ242652).
The replicon is transfected into Huh-7 cells using standard methods such as electroporation.
The equipment and materials include, but are not limited to, Huh-7 HCV replicon-containing cells, maintenance media (DMEM (Dulbecco's modified Eagle media) supplemented with 10% FBS, L-glutamine, non-essential amino acids, penicillin (100 units/ml), streptomycin (100 micrograms/ml), and 500 micrograms/ml of Geneticin G418), screening media (DMEM supplemented with 10% FBS, L-glutamine, and non-essential amino acid, penicillin (100 units/ml) and streptomycin (100 micrograms/ml)), 96 well tissue culture plates (flat bottom), 96 well plates (U bottom for drug dilution), Interferon alpha for positive control, fixation reagent (such as methanol: acetone), primary antibody (rabbit anti-NPTII), secondary antibody: Eu—N1l, and enhancement solution.
HCV replicon-containing cells support high levels of viral RNA replicon replication when their density is suitable. Over confluency will cause a decrease of viral RNA replication. Therefore, cells must be kept growing in log phase in the presence of 500 micrograms/ml of G418. Generally, cells should be passed twice a week at 1: 4-6 dilution. Cell maintenance is conducted as follows:
HCV replicon-containing cells are examined under a microscope to ensure that cells growing well. Cells are rinsed once with PBS and 2 ml trypsin is added. The cell/trypsin mixture is incubated at 37° C. in a CO2 incubator for 3-5 minutes. After incubation 10 ml of complete media is added to stop the trypsinization reaction. Cells are blown gently, put into a 15 ml tube, and spun at 1200 rpm for 4 minutes. The trypsin/medium solution is removed. Medium (5 ml) is added and the cells are mixed carefully. The cells are counted.
The cells are then seeded onto 96-well plates at a density of 6000-7500 cells/100 ul/well (6-7.5×10^5 cells/10 ml/plate). The plates are then incubated at 37° C. in a 5% CO2 incubator. […]

SMILES	EC50 [nM]
NC(=S)Nc1cccc(Oc2ccccc2)c1 [Compound 3, 1-(3-Phenoxy-phenyl)-thiourea]	< 1000
NC(=S)Nc1cccc(Cc2ccccc2)c1 [Compound 5, 1-(3-Benzyl-phenyl)-thiourea]	< 1000
CCCCCOc1ccc(NC(N)=S)cc1 [Compound 6, 1-(4-Pentyloxy-phenyl)-thiourea]	< 1000
CCCCCc1ccc(NC(N)=S)cc1 [Compound 7, 1-(4-Pentyl-phenyl)-thiourea]	< 1000
CCCCCOc1ccc(NC(N)=S)cc1F [Compound 12, 1-(3-Fluoro-(4-Pentyloxy)-phenyl)-thiourea]	< 1000
NC(=S)Nc1cccc(OC2Cc3ccccc3C2)c1 [Compound 13, 1-(3-(indan-2-yloxy)phenyl)thiourea]	< 1000
NC(=S)Nc1cccc(OCc2ccc(F)c(F)c2)c1 [Compound 14, 1-(3-(3,4-difluorobenzyloxy)phenyl)thiourea]	< 1000
NC(=S)Nc1cccc(OCc2ccc(-c3ccccc3)cc2)c1 [Compound 15, 1-(3-(4-phenylbenzyloxy)phenyl)thiourea]	< 1000
C[C@H](Oc1cccc(NC(N)=S)c1)c1ccccc1 [Compound 16, 1-(3-((S)-1-phenylethoxy)phenyl)thiourea]	< 1000
NC(=S)Nc1ccc2c(c1)OC(c1ccccc1)O2 (stereo not drawn) [Compound 19, 1-(2-phenylbenzo[d]-[1,3]dioxol-6-yl)thiourea]	< 1000
C[C@@H](Oc1cccc(NC(N)=S)c1)c1ccccc1 [Compound 20, 1-(3-((R)-1-phenylethoxy)phenyl)thiourea]	< 1000
NC(=S)Nc1cccc(OCCc2ccccc2)c1 [Compound 21, 1-(3-(phenethyloxy)phenyl)thiourea]	< 1000
NC(=S)Nc1cccc(-c2ccccc2)c1 [Compound 22, 1-(3-(phenyl)phenyl)thiourea]	< 1000
NC(=S)Nc1ccc(-c2ccccc2)cc1 [Compound 23, 1-(4-(phenyl)phenyl)thiourea]	< 1000
NC(=S)Nc1ccc(N2CCc3ccccc3C2)c(F)c1 [Compound 24, 1-(3-fluoro-4-(3,4-dihydro-isoquinolin-2(1H)-yl)phenyl)thiourea]	< 1000
NC(=S)Nc1ccc(N2CCc3ccccc3C2)cc1 [Compound 25, 1-(4-(3,4-dihydro-isoquinolin-2(1H)-yl)phenyl)thiourea]	< 1000
NC(=S)Nc1ccc(N2CCC3CCCCC3C2)cc1 (stereo not drawn) [Compound 26, 1-(4-(octahydroisoquinolin-2(1H)-yl)phenyl)thiourea]	< 1000

SMILES	EC50 [nM]
NC(=S)Nc1ccc(OCc2ccccc2)cc1 [Compound 28, 1-(4-(benzyloxy)phenyl)thiourea]	< 1000
CCCCCC[C@H]1CC[C@H](c2ccc(NC(N)=S)cc2)CC1 [Compound 29, 1-(4-((1s,4r)-4-hexylcyclohexyl)phenyl)thiourea]	< 1000
CCCCCCC12CCC(c3ccc(NC(N)=S)cc3)(CC1)CC2 [Compound 30, 1-(4-(4-hexylbicyclo[2.2.2]octan-1-yl)phenyl)thiourea]	< 1000
CCC[C@H]1CC[C@H](c2ccc(NC(N)=S)cc2)CC1 [Compound 31, 1-(4-((1s,4r)-4-propylcyclohexyl)phenyl)thiourea]	< 1000
NC(=S)Nc1ccc(N2CCCCC2)c(C(F)(F)F)c1 [Compound 32, 1-(3-(trifluoromethyl)-4-(piperidin-1-yl)phenyl)thiourea]	< 1000
CCCCC#Cc1ccc(NC(N)=S)cc1 [Compound 33, 1-(4-(hex-1-ynyl)phenyl)thiourea]	< 1000
COc1cccc(Cc2cccc(NC(N)=S)c2)c1 [Compound 35, 1-(3-(3-methoxybenzyl)phenyl) thiourea]	< 1000
CCCCCCCOc1ccc(NC(N)=S)cc1C(F)(F)F [Compound 39, 1-(4-(heptyloxy)-3-(trifluoromethyl)phenyl)thiourea]	< 1000
Cc1cc(NC(N)=S)ccc1N1CCCCC1 [Compound 51, 1-(3-(methyl)-4-(piperidin-1-yl)phenyl)thiourea]	< 1000
NC(=S)Nc1cccc(NCC2CCCCC2)c1 [Compound 52, 1-(3-(cyclohexylmethylamino)phenyl)thiourea]	< 1000
NC(=S)Nc1cccc(OCc2cccc(C(F)(F)F)c2)c1 [Compound 53, 1-(3-(3-(trifluoromethyl)benzyloxy)phenyl)thiourea]	< 1000
NC(=S)Nc1ccc(N2CCC(c3ccccc3)CC2)c(F)c1 [Compound 54, 1-(3-fluoro-4-(4-phenylpiperidin-1-yl)phenyl)thiourea]	< 1000
NC(=S)NCc1ccc(Oc2ccccc2)cc1 [Compound 55, 1-(4-phenoxybenzyl)thiourea]	< 1000
NC(=S)NCc1cccc(-c2ccccc2)c1 [Compound 56, 1-(3-phenylbenzyl)thiourea]	< 1000
NC(=S)NCc1ccc(-c2ccccc2)cc1 [Compound 57, 1-(4-phenylbenzyl)thiourea]	< 1000
CCCCc1ccc(CNC(N)=S)cc1 [Compound 59, 1-(4-butylbenzyl)thiourea]	< 1000
